Measured values: PubChem BioAssay AID624491 (Broad Institute, 2012)

Tested on: D54 ERlucT glycosylation luciferase reporter, luminescence, 24 h
Test: N-linked glycosylation inhibitors, luciferase reporter, dose response, D54 ERlucT cells, luminescence, cherry-picks (AID 624491);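 note: signal gain reflects blocked N-linked glycosylation of a luciferase reporter; actives raise luciferase signal so AC26 marks activators of the reporter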

Question: Which AC26 does the source give for `CC(=O)Nc1cccc(-c2ccnc3c2CC(C)(C(=O)NCc2cccs2)O3)c1` (stereo unspecified) here?
Answer: The AC26 was 1450 nM.

Question: With `CNC(=O)c1cccn(Cc2ccc(C(F)(F)F)cc2)c1=O` as the compound, how does the AC26 read?
Answer: The AC26 was 3370 nM.

Question: With `O=C(Nc1cccc(-c2cn3ccccc3n2)c1)c1cccc(Cl)c1` as the compound, how does the AC26 read?
Answer: The AC26 was 1750 nM.

Question: For `O=C(CN1C(=O)NC2(CCCCCC2)C1=O)Nc1ccc2c(c1)CCC2`, which AC26 is on record?
Answer: The AC26 was 1970 nM.

Question: `Cc1ccc(NCCN(C)C)c2c(=O)c3cc(O)ccc3sc12` was tested. Which AC26 did it give?
Answer: Its AC26 is 84.5 nM.

Question: How did the AC26 turn out when `NC(=O)COc1ccc(C(=O)/C=C2/C(=O)Nc3ccccc32)cc1` was run?
Answer: Its AC26 is 3180 nM.

Question: `CN=C(SCC(=O)c1cccc(Cl)c1)c1c(O)n(C)c(=O)n(C)c1=O` was tested. Which AC26 did it give?
Answer: The AC26 was 2590 nM.

Question: With `CCc1ccc(N2CC(C(=O)Nc3ccccc3N3CCCC3)CC2=O)cc1` (stereo unspecified) as the compound, how does the AC26 read?
Answer: Its AC26 is 5370 nM.

Question: How did the AC26 turn out when `c1ccc2c(c1)C1=NCCN1c1ccccc1-2` was run?
Answer: The AC26 was 544 nM.

Question: Which AC26 does the source give for `COc1cc(NC(=O)CN2c3cccc4cccc(c34)S2(=O)=O)cc(OC)c1OC` here?
Answer: The AC26 was 1770 nM.

Question: Which AC26 does the source give for `COc1cc(OC)c2nc(C)c3c(c2c1)N(c1ccc(O)cc1)CC3` here?
Answer: Its AC26 is 1190 nM.

Question: `Cc1cc(C)nc(N2Cc3ccccc3C2=N)n1` was tested. Which AC26 did it give?
Answer: The AC26 was 4560 nM.

Question: For `CCNc1nc(NC(C)(C)C)nc(SC(C(C)=O)C(C)=O)n1`, which AC26 is on record?
Answer: Its AC26 is 208 nM.

Question: How did the AC26 turn out when `O=C(N/N=C/c1cccs1)c1cc(-c2cccc3ccccc23)n[nH]1` was run?
Answer: The AC26 was 4700 nM.

Question: How did the AC26 turn out when `Cn1c(=O)n(C)c2cc(NC(=O)CCl)ccc21` was run?
Answer: Its AC26 is 2090 nM.

Question: How did the AC26 turn out when `COc1ccc(-c2nnc(SCC(=O)Nc3ncc(C)s3)n2-c2ccccc2)cc1OC` was run?
Answer: Its AC26 is 1050 nM.

Question: With `CC(=O)Nc1ccc(-c2ccnc3c2CC(C(=O)NCc2cccc(Cl)c2)O3)cc1` (stereo unspecified) as the compound, how does the AC26 read?
Answer: The AC26 was 540 nM.

Question: How did the AC26 turn out when `Cc1cc(NCCCn2ccnc2)n2nc(C)c(-c3ccccc3)c2n1` was run?
Answer: Its AC26 is 1170 nM.

Question: `CCOC(=O)[C@H]1[C@H]2COc3ccc(OC)cc3[C@@H]2N2C(=O)c3cc(OC)c(OC)cc3NC(=O)[C@@]12C` was tested. Which AC26 did it give?
Answer: Its AC26 is 300 nM.

Question: For `CCNC(=O)c1cc2c(=O)n3cccc(C)c3nc2n(CCc2ccccc2)c1=N`, which AC26 is on record?
Answer: Its AC26 is 1520 nM.

Question: For `Cc1ccc2c(c1)[C@H]1[C@H](CO2)[C@H](c2ccccc2)[C@]2(C)C(=O)Nc3ccc(Br)cc3C(=O)N12`, which AC26 is on record?
Answer: Its AC26 is 1430 nM.

Question: For `CCN(CC)c1ccc(/C=N\NC(=O)c2cccc3cc[nH]c23)cc1`, which AC26 is on record?
Answer: The AC26 was 1860 nM.

Question: How did the AC26 turn out when `COc1ccc2oc(-c3ccccc3[N+](=O)[O-])cc(=O)c2c1` was run?
Answer: Its AC26 is 568 nM.

Question: `O=C(NCCc1ccccc1)C1c2ccccc2C(=O)N1Cc1cccs1` (stereo unspecified) was tested. Which AC26 did it give?
Answer: The AC26 was 2690 nM.

Question: How did the AC26 turn out when `COc1ccccc1NC(=O)/C=C/c1ccc2c(c1)OCO2` was run?
Answer: Its AC26 is 3780 nM.

Question: `O=C(c1cccc(N2CCCC2=O)c1)N1CCN(c2cccc(Cl)c2)CC1` was tested. Which AC26 did it give?
Answer: Its AC26 is 2600 nM.

Question: With `COc1ccc(NC2=C(C)C(=O)CC2)cc1` as the compound, how does the AC26 read?
Answer: The AC26 was 2940 nM.

Question: Which AC26 does the source give for `Nc1nc(-c2ccccc2)cc(-c2ccccc2O)n1` here?
Answer: Its AC26 is 4980 nM.

Question: How did the AC26 turn out when `O=C(c1[nH]c(C(F)(F)F)nc1-c1ccccc1)N1CCN(c2cccc(C(F)(F)F)n2)CC1` was run?
Answer: Its AC26 is 9230 nM.

Question: For `Cc1cccc2cc(/C=C/C(=O)c3ccco3)c(Cl)nc12`, which AC26 is on record?
Answer: The AC26 was 3830 nM.

Question: Which AC26 does the source give for `COc1ccc(C(=O)/C=C\c2ccc(NC(=O)c3cccs3)cc2)cc1` here?
Answer: The AC26 was 2000 nM.

Question: How did the AC26 turn out when `Cc1nnc2c(NCCC(C)C)nc3ccccc3n12` was run?
Answer: The AC26 was 6080 nM.

Question: `COc1ccc(Nc2c3ccccc3nc3ccccc23)cc1` was tested. Which AC26 did it give?
Answer: Its AC26 is 1020 nM.

Question: With `O=C1NC(=O)C(=Cc2c(Cl)cccc2Cl)C(=O)N1` as the compound, how does the AC26 read?
Answer: Its AC26 is 2240 nM.

Question: How did the AC26 turn out when `COCCNC(=O)c1cc(-c2ccccc2OC)on1` was run?
Answer: Its AC26 is 9620 nM.

Question: How did the AC26 turn out when `O=C(Nc1ccccc1)N(CCN1CCOCC1)Cc1ccccc1F` was run?
Answer: The AC26 was 1360 nM.

Question: Which AC26 does the source give for `O=C(NCC1CCCO1)c1cc(-c2ccccc2)on1` (stereo unspecified) here?
Answer: Its AC26 is 6450 nM.

Question: Which AC26 does the source give for `COc1ccc(OC)c(Nc2cc3ccccc3c(=O)[nH]2)c1` here?
Answer: Its AC26 is 207 nM.

Question: Which AC26 does the source give for `COc1ccc2c(c1)[C@H]1[C@H](CO2)[C@H](c2ccccc2)[C@]2(C)C(=O)Nc3ccc(F)cc3C(=O)N12` here?
Answer: Its AC26 is 568 nM.

Question: For `CCOC(=O)/C(=C\c1ccccc1)C(=O)c1cc(C(C)=O)c(Nc2ccccc2)s1`, which AC26 is on record?
Answer: The AC26 was 1150 nM.

Question: For `O=C(N/N=C/c1ccc(Cl)cc1)c1sccc1OCc1ccc(F)cc1`, which AC26 is on record?
Answer: Its AC26 is 83.6 nM.

Question: How did the AC26 turn out when `Cc1ccc(NC(=O)c2cc(S(=O)(=O)N(C)C)ccc2N2CCCC2)cc1S(=O)(=O)N(C)C` was run?
Answer: Its AC26 is 276 nM.

Question: With `COc1cccc(-c2nn(C)c3sc(C(=O)NCc4ccco4)cc23)c1` as the compound, how does the AC26 read?
Answer: The AC26 was 3620 nM.

Question: `O=C1Cc2c([nH]c3ccc([N+](=O)[O-])cc23)-c2ccccc2N1` was tested. Which AC26 did it give?
Answer: Its AC26 is 318 nM.

Question: Which AC26 does the source give for `CCc1ccc(N2C(=O)Nc3ccccc3C2(O)C(=O)N2CCN(c3ccccn3)CC2)cc1` (stereo unspecified) here?
Answer: Its AC26 is 625 nM.

Question: With `Cc1cc(C(=O)N/N=C/c2c3ccccc3cc3ccccc23)n[nH]1` as the compound, how does the AC26 read?
Answer: Its AC26 is 6680 nM.

Question: With `COCCCNC(=O)c1ccc(-c2c(C)noc2C)c2ccoc12` as the compound, how does the AC26 read?
Answer: Its AC26 is 4060 nM.

Question: `CC(=O)c1cccc(Nc2c3c(nc4ccccc24)CCC3)c1` was tested. Which AC26 did it give?
Answer: The AC26 was 819 nM.

Question: How did the AC26 turn out when `CC(C)(C)c1ccc(OCc2ccc(C(=O)Nc3cccnc3)o2)cc1` was run?
Answer: The AC26 was 7560 nM.

Question: Which AC26 does the source give for `COc1ccc2nc3ccccc3nc2c1NC(=O)c1ccccc1Cl` here?
Answer: The AC26 was 11400 nM.

Question: `COc1cc(F)ccc1-c1csc(C(NC(C)=O)c2cccc(F)c2)n1` (stereo unspecified) was tested. Which AC26 did it give?
Answer: Its AC26 is 206 nM.

Question: For `O=C1c2ccccc2C(=O)N1Cc1cnc(N2CCN(c3ccccc3)CC2)s1`, which AC26 is on record?
Answer: The AC26 was 7870 nM.

Question: `COc1cccc(Sc2ccccc2/C=N/NC(N)=O)c1` was tested. Which AC26 did it give?
Answer: Its AC26 is 8340 nM.

Question: How did the AC26 turn out when `COc1ccc(-c2cc(C(=O)NCC(c3ccccc3)N(C)C)c3ccccc3n2)cc1OC` (stereo unspecified) was run?
Answer: The AC26 was 1320 nM.

Question: `O=c1cc(-c2ccccc2)[nH]c2ccc(F)cc12` was tested. Which AC26 did it give?
Answer: Its AC26 is 198 nM.

Question: `COc1cc(-c2nnc(SCC3(c4ccc(Br)cc4)OCCO3)o2)cc(OC)c1OC` was tested. Which AC26 did it give?
Answer: Its AC26 is 210 nM.

Question: `O=C(c1ccc(CS(=O)c2ccccc2Cl)o1)N1CCN(c2ccccn2)CC1` (stereo unspecified) was tested. Which AC26 did it give?
Answer: Its AC26 is 5990 nM.

Question: With `C#CCCOC(=O)N1C2=NC(C(=O)OC)=C(C(=O)OC)[C@@H]3N(C)c4ccccc4[C@]23C[C@H]1C(=O)OC` as the compound, how does the AC26 read?
Answer: Its AC26 is 479 nM.

Question: How did the AC26 turn out when `COc1cc(C(=O)Nc2ccc3c(c2)nc(C)n3C)cc(OC)c1OC` was run?
Answer: The AC26 was 2690 nM.

Question: With `Cn1cnc([N+](=O)[O-])c1Sc1nc2ccccc2[nH]1` as the compound, how does the AC26 read?
Answer: The AC26 was 797 nM.

Question: How did the AC26 turn out when `Cc1ccc(/C=N/NC(=O)C2COc3ccccc3O2)s1` (stereo unspecified) was run?
Answer: The AC26 was 307 nM.

Question: For `Oc1ccc(Nc2nc(N3CCCC3)c3ccccc3n2)cc1`, which AC26 is on record?
Answer: Its AC26 is 335 nM.

Question: With `O=C(CN1C(=O)NC(c2ccccc2)(c2ccccc2)C1=O)Nc1ccc(N2CCOCC2)cc1` as the compound, how does the AC26 read?
Answer: The AC26 was 4200 nM.

Question: How did the AC26 turn out when `COc1ccc(NC(=O)C(=O)NCC2CCCN2S(=O)(=O)c2cccs2)cc1` (stereo unspecified) was run?
Answer: Its AC26 is 5020 nM.

Question: For `COc1ccc(OC)c(N(CC(=O)Nc2cccc3ccccc23)S(C)(=O)=O)c1`, which AC26 is on record?
Answer: Its AC26 is 3100 nM.

Question: Which AC26 does the source give for `c1ccc2cc3c(NCCN4CCOCC4)ccnc3cc2c1` here?
Answer: The AC26 was 515 nM.
